The source made the active and inactive calls.
Key:
[1] = system: CWR22R; test: Antiproliferative activity against human 22Rv1 cells assessed as inhibition of cell growth measured after 7 days by SRB assay; format: functional, cell-based; settings: 22Rv1, 168 h
[2] = system: Panc1005; test: Synergistic antiproliferative activity against human Panc1005 cells assessed as combination index for ED90 upto 20 uM incubated for 72 hrs in presence of MRTX1133; format: functional
[3] = system: PANC-1; test: Effect on GSPT1 level in human PANC-1 cells at 0.008 to 10 uM measured after 8 hrs by western blot analysis; format: functional, cell-based; settings: dose 0.008-10 µM
[4] = Half life in male ICR mouse at 5 mg/kg, iv measured upto 24 hrs by LC-MS/MS analysis; format: ADME, organism-based; settings: in vivo
[5] = target: T1, Histone-lysine N-methyltransferase EHMT2 (Homo sapiens) (UniProt Q96KQ7); test: Inhibition of N-terminal GST tagged human recombinant G9a (785 to 1210 residues) expressed in Escherichia coli using H3(1 to 21)K9me1 and SAM as substrates incubated for 1 hr by HTRF assay
T1 sequence (whole entry): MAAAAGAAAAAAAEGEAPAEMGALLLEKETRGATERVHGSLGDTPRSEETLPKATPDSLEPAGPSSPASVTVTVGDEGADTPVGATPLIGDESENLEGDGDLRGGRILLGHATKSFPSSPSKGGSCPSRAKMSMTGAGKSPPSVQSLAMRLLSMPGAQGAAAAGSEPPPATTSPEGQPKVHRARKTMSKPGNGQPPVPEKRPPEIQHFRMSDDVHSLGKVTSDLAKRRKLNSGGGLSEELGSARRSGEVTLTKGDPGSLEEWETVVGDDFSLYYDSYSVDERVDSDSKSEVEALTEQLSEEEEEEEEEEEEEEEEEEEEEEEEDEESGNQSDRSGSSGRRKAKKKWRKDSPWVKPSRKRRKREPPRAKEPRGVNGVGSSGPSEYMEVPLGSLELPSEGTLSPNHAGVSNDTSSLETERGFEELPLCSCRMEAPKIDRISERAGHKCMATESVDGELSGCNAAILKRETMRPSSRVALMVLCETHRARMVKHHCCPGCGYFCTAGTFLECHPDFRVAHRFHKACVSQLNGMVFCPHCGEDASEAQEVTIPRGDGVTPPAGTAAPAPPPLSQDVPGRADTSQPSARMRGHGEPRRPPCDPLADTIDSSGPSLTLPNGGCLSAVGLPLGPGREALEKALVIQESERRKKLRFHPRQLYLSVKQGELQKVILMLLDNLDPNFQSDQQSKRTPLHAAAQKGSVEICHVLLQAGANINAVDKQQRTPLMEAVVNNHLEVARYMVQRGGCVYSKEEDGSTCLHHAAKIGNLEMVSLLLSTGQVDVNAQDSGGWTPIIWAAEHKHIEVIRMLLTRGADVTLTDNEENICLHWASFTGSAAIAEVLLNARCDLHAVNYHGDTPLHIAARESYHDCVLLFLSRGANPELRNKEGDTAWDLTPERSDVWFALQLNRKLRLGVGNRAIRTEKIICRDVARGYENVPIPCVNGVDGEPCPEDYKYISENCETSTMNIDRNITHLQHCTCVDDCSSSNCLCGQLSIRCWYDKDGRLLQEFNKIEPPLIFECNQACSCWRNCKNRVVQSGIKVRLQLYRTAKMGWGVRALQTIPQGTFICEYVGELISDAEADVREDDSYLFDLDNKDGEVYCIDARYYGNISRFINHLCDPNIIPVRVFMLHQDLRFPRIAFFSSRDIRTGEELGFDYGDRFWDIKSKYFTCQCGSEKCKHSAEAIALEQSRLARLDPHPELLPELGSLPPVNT

[6] = Bioavailability in male ICR mouse at 20 mg/kg, ip measured upto 24 hrs by LC-MS/MS analysis; format: ADME, organism-based; settings: in vivo
[7] = system: ASPC1; test: Sensitization of human ASPC1 cells to MRTX1133 assessed as upregulation of cleaved PARP level at 10 uM incubated for 24 hrs in presence of 1 uM MRTX1133 by Western blot analysis; format: functional, cell-based
[8] = Half life in male ICR mouse at 20 mg/kg, ip measured upto 24 hrs by LC-MS/MS analysis; format: ADME, organism-based; settings: in vivo
[9] = system: HPAF-II; test: Synergistic antiproliferative activity against human HPAF-II cells assessed as combination index for ED90 upto 20 uM incubated for 72 hrs in presence of MRTX1133; format: functional
[10] = system: ASPC1; test: Sensitization of human ASPC1 cells to MRTX1133 assessed as upregulation of gammaH2AX level at 10 uM incubated for 24 hrs in presence of 1 uM MRTX1133 by Western blot analysis; format: functional, cell-based
[11] = system: PANC-1; test: Downregulation of H3K9me2 expression in human PANC-1 cells at 0.1 to 10 uM measured after 24 hrs by Western blot analysis; format: functional, cell-based; settings: dose 0.1-10 µM
[12] = system: PANC-08-13; test: Synergistic antiproliferative activity against human PANC-08-13 cells assessed as combination index for ED90 upto 20 uM incubated for 72 hrs in presence of MRTX1133; format: functional
[13] = system: PANC-1; test: Antiproliferative activity against human PANC-1 cells assessed as inhibition of cell growth measured after 72 hrs by SRB assay; format: functional, cell-based
[14] = system: Panc 02.03; test: Antiproliferative activity against human Panc 02.03 cells assessed as inhibition of cell growth measured after 72 hrs by SRB assay; format: functional, cell-based
[15] = system: PANC-1; test: Effect on H3K4me2 level in human PANC-1 cells at 0.04 to 10 uM measured after 24 hrs by Western blot analysis; format: functional, cell-based; settings: dose 0.04-10 µM
[16] = target: Protein cereblon/Histone-lysine N-methyltransferase EHMT2 (Homo sapiens, UniProt Q96KQ7+Q96SW2); test: PROTAC activity at CRBN/G9a in human PANC-1 cells assessed as induction of G9a degradation at 1 uM pretreated with MG132 for 2 hrs followed by compound addition and measured after 8 hrs by Western blot analysis; format: cell-based
[17] = system: ASPC1; test: Antiproliferative activity against human ASPC1 cells assessed as inhibition of cell growth measured after 72 hrs by SRB assay; format: functional, cell-based
[18] = system: KP-4; test: Inhibition of colony formation in human KP-4 cells at 5 to 10 uM in presence of MRTX1133 measured after 10 to 14 days by crystal violet staining based analysis; format: functional, cell-based; settings: dose 5-10 µM, time 10-14 day
[19] = system: ASPC1; test: Induction of apoptosis in human ASPC1 cells at 10 uM incubated for 24 hrs in presence of 1 uM MRTX1133 by Annexin V-FITC/PI staining based flow cytometry analysis; format: functional, cell-based
[20] = system: PANC-1; test: Effect on H3K27me3 level in human PANC-1 cells at 0.04 to 10 uM measured after 24 hrs by Western blot analysis; format: functional, cell-based; settings: dose 0.04-10 µM
[21] = system: SW1990; test: Antiproliferative activity against human SW1990 cells assessed as inhibition of cell growth measured after 72 hrs by SRB assay; format: functional, cell-based
[22] = target: Protein cereblon/Histone-lysine N-methyltransferase EHMT1 (Homo sapiens) (UniProt Q9H9B1+Q96SW2); test: PROTAC activity at CRBN/GLP in human PANC-1 cells assessed as induction of GLP degradation at 0.008 to 10 uM measured after 8 hrs by Western blot analysis; format: cell-based; settings: dose 0.008-10 µM
Chain of Protein cereblon/Histone-lysine N-methyltransferase EHMT1 (Homo sapiens) (Q96SW2 whole entry, looked up): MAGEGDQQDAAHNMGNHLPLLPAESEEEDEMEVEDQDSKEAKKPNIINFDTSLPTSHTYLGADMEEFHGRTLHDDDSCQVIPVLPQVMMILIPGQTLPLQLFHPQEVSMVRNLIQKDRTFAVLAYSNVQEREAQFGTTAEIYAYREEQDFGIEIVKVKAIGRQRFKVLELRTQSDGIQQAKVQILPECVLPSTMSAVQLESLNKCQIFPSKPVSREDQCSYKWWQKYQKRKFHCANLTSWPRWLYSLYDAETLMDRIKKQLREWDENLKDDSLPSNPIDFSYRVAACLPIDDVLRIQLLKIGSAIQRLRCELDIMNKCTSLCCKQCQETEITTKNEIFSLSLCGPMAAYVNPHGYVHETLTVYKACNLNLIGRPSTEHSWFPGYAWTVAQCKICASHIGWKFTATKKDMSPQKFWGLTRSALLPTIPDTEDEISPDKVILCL
Chain of Protein cereblon/Histone-lysine N-methyltransferase EHMT1 (Homo sapiens) (Q9H9B1 whole entry, looked up): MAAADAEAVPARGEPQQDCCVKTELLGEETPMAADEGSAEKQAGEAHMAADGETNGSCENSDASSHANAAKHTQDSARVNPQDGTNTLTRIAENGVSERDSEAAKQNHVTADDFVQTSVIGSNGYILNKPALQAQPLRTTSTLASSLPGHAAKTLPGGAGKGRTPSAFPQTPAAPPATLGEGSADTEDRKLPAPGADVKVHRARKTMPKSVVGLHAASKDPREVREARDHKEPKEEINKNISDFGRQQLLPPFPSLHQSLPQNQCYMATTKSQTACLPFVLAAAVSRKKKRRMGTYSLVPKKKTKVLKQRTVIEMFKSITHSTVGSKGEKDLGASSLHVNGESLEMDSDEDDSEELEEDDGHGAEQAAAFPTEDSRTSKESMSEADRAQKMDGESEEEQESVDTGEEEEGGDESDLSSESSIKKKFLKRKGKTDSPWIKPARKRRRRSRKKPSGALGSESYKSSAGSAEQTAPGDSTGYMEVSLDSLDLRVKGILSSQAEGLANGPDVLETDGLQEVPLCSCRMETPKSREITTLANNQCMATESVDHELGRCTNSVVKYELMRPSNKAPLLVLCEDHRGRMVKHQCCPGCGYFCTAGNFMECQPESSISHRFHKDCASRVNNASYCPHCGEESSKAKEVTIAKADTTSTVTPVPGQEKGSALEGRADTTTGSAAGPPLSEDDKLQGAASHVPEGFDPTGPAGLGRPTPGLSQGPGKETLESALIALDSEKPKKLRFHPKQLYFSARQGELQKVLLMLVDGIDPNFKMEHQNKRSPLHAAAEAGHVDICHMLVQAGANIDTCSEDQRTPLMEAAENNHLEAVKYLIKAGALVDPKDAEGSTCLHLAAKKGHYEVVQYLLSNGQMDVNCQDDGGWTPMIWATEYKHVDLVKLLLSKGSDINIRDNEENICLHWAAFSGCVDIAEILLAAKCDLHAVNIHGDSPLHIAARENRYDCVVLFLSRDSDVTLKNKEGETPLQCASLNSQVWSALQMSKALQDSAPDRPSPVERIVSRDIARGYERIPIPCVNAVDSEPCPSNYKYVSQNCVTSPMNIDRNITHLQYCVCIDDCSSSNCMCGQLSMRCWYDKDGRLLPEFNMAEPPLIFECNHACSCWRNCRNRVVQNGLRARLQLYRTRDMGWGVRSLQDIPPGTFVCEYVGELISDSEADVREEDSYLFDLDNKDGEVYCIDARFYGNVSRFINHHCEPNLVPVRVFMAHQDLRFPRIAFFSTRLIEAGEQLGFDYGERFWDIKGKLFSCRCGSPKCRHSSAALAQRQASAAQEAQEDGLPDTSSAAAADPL

Chain of Protein cereblon/Histone-lysine N-methyltransferase EHMT2 (Q96SW2 whole entry partner, one chain of several): as the sequence (Q96SW2 whole entry, looked up) above

COc1cc2c(NC3CCN(CCCC(=O)NCCCCCCCCNc4cccc5c4C(=O)N(C4CCC(=O)NC4=O)C5=O)CC3)nc(C3CCCCC3)nc2cc1OCCCN1CCCC1 (configuration not stated)
active: inhibition [5] | Activity [7] | Activity [10] | Activity [11] | Activity [13] | Activity [14] | Activity [17] | inhibition [18] | Activity [19] | Activity [21]
inactive: Activity [3] | Activity [15] | Activity [16] | Activity [20] | Activity [22]
4.2 h: half-life [8]
5.3 h: half-life [4]
9.9 µM: IC50 [1]
<0.4: CI [2] | CI [9] | CI [12]
40.6%: bioavailability [6]

— ChEMBL document CHEMBL5523762, “Discovery of Potent and Selective G9a Degraders for the Treatment of Pancreatic Cancer” (J Med Chem, 2024)
